Read-outs that look alike come from different tables or passages of the source. Where no end group is shown, it is not given here.
Test system: drug-resistant Mycobacterium tuberculosis

Compound | inhibition of the growth of Mycobacterium tuberculosis (drug-resistant, 5 micrograms per ml) | inhibition of the growth of Mycobacterium tuberculosis
CCNC(=O)[C@@H]1CCCN1C(=O)[C@H](CCCN=C(N)N)NC(=O)[C@H](CC(C)C)NC(=O)[C@@H](Cc1c[nH]c2ccccc12)NC(=O)[C@H](Cc1ccc(O)cc1)NC(=O)[C@H](CO)NC(=O)[C@H](Cc1c[nH]c2ccccc12)NC(=O)[C@H](Cc1cnc[nH]1)NC(=O)[C@@H]1CCC(=O)N1 [Peptide 1, Pyr-His-Trp-Ser-Tyr-D-Trp-Leu-Arg-Pro-NHEt] | 100% | 
Ile-Asn-Leu-Lys-Ala-Leu-Ala-Ala-Leu-Ala-Lys-Lys-Ile-Leu-NH2 (INLKALAALAKKIL-NH2) [Peptide 2] |  | 100%

Source: patent US20100184698A1, “USE OF A […] […] A […] AGENT” (priority 2007, published 2010)
